# In US10294207B2, “Pyrazole derivatives as TNIK, IKKϵ and TBK1 inhibitor and pharmaceutical composition comprising same” (GREEN CROSS CORPORATION, priority 2015, dated 2019):
# Assays:
# Format in all cases: biochemical
# Settings in all cases: luminometer
# [1] = molecular target: T1, TBK1 (Homo sapiens, UniProt Q9UHD2); test: TBK1 inhibition, ADP-Glo Kinase Assay
# T1 construct: purchased Promega V3991
# T1 sequence (Q9UHD2 1-729): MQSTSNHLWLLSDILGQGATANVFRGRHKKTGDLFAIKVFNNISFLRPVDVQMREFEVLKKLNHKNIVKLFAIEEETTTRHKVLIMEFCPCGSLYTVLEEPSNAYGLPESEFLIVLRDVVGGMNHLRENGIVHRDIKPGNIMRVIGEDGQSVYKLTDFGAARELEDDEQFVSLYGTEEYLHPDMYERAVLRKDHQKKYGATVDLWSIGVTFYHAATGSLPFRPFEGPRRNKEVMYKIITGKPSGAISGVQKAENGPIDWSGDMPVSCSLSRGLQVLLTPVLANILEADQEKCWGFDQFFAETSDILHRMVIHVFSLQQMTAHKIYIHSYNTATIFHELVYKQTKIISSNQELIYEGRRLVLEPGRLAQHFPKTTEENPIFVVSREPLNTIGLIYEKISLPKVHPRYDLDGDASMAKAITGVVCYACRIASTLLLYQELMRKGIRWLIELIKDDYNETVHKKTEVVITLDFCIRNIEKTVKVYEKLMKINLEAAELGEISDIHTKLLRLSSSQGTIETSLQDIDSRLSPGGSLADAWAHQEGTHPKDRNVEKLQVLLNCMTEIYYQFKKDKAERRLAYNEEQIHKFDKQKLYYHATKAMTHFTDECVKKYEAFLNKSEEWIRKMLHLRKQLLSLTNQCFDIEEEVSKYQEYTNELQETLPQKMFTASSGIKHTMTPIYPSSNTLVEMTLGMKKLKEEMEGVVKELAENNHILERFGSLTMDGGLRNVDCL
# Procedure, shortened: (§1)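 ADP-Glo luminescence reported ADP produced by each kinase, following the kit protocol. Reactions used commercial kinase enzyme systems in buffer of 40 mM Tris (pH 7.5), 20 mM MgCl2 and 0.1 mg/mL BSA.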
# [2] = molecular target: T2, TNIK (Homo sapiens, UniProt Q9UKE5); test: TNIK inhibition, ADP-Glo Kinase Assay
# T2 construct: purchased Promega V4158
# T2 sequence (Q9UKE5 1-367 limits assumed): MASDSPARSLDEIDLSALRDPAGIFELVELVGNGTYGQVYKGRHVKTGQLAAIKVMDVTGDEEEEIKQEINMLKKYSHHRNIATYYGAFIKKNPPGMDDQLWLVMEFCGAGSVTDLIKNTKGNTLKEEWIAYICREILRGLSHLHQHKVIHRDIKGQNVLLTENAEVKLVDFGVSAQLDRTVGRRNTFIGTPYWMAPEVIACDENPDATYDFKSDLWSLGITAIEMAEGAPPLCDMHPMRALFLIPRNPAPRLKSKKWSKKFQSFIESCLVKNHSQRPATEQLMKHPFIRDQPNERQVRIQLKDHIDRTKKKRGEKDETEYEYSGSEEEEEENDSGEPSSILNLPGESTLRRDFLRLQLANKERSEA
# Protocol: Inhibition activities on TNIK, IKKε and TBK1 were evaluated using the compounds of Examples 1 to 254.
# The inhibition activities on TNIK, IKKε and TBK1 were measured by a luminometer, TNIK/IKKε/TBK1 Kinase Enzyme System (Promega, Ca# V4158; Invitrogen, PR8031B, Promega, Ca# V3991) and ADP-Glo Kinase Assay using ADP-Glo™ Kinase Analysis Kit (Promega, Ca# V9101) and a kinase reaction buffer [40 mM Tris(pH 7.5), 20 mM MgCl2, 0.1 mg/mL BSA] in accordance with the manufacturer's protocol.
# [3] = molecular target: T3, IKKε (Homo sapiens, UniProt Q14164); test: IKKε inhibition, ADP-Glo Kinase Assay
# T3 construct: purchased Invitrogen PR8031B
# T3 sequence (Q14164 1-716): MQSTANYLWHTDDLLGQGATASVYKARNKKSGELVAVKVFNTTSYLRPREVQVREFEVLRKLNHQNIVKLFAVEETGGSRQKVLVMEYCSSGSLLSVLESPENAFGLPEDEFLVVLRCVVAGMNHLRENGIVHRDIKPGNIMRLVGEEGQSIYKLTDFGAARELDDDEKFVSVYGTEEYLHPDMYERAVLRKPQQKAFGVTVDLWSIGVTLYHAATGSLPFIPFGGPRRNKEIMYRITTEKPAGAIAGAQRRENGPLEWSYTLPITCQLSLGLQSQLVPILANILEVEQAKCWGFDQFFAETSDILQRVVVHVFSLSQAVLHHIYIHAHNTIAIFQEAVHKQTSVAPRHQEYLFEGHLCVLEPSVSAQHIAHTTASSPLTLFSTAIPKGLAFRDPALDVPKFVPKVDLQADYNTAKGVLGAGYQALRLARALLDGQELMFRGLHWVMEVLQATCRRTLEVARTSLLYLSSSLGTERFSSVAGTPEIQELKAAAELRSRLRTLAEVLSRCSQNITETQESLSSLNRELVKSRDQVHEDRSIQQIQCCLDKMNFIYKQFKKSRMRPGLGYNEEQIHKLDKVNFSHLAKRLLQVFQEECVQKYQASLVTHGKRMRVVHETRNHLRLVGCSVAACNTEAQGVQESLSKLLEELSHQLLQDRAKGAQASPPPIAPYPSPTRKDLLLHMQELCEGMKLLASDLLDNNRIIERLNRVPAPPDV
# Procedure, shortened: as §1
Structure (SMILES),IC50 [1] [µM],IC50 [2] [µM],"TNIK (μM), inhibition activity [2]",IC50 [3] [µM]
"Cc1cnc(-c2cc3[nH]nc(NC(=O)c4ccc(N(C)C)cc4)c3s2)s1 [Example 251, 4-(dimethylamino)-N-(5-(5-methylthiazol-2-yl)-1H-thieno[3,2-c]pyrazol-3-yl)benzamide]",1.4,0.25,,
"CCc1cnc(-c2cc3[nH]nc(-c4ccc(N5CCOCC5)cc4)c3s2)o1 [Example 244, 4-(4-(5-(5-ethyloxazol-2-yl)-1H-thieno[3,2-c]pyrazol-3-yl)phenyl)morpholine]",,1.01,,
"Cc1cnc(-c2cc3[nH]nc(-c4ccc(OCCN5CCOCC5)cc4)c3s2)o1 [Example 250, 4-(2-(4-(5-(5-methyloxazol-2-yl)-1H-thieno[3,2-c]pyrazol-3-yl)phenoxy)ethyl)morpholine]",,0.11,,
"CCNC(=O)c1cc2[nH]nc(-c3ccc(OC)cc3)c2s1 [Example 232, N-ethyl-3-(4-methoxyphenyl)-1H-thieno[3,2-c]pyrazole-5-carboxamide]",> 10,1.95,,
"CCc1cnc(-c2cc3[nH]nc(NC(=O)c4ccc(N5CCOCC5)cc4)c3s2)s1 [Example 252, N-(5-(5-ethylthiazol-2-yl)-1H-thieno[3,2-c]pyrazol-3-yl)-4-morpholinobenzamide]",1.3,0.41,,
"COC(=O)c1cc2[nH]nc(-c3ccc(OC)cc3)c2s1 [Example 231, methyl 3-(4-methoxyphenyl)-1H-thieno[3,2-c]pyrazole-5-carboxylate]",> 10,0.54,,
"Cc1cnc(-c2cc3[nH]nc(NC(=O)c4ccc(NCCO)cc4)c3s2)o1 [Example 228, 4-((2-hydroxyethyl)amino)-N-(5-(5-methyloxazol-2-yl)-1H-thieno[3,2-c]pyrazol-3-yl)benzamide]",0.12,0.11,,
"CCNC(=O)c1cc2[nH]nc(-c3ccc(F)cc3)c2s1 [Example 240, N-ethyl-3-(4-fluorophenyl)-1H-thieno[3,2-c]pyrazole-5-carboxamide]",> 10,2.85,,
"COc1ccc(C(=O)Nc2n[nH]c3cc(-c4ncc(C)o4)sc23)cc1 [Example 222, 4-methoxy-N-(5-(5-methyloxazol-2-yl)-1H-thieno[3,2-c]pyrazol-3-yl)benzamide]",0.35,0.31,,
"Cc1cnc(-c2cc3[nH]nc(NC(=O)c4ccc(N5CCOCC5)cc4)c3s2)o1 [Example 218, N-(5-(5-methyloxazol-2-yl)-1H-thieno[3,2-c]pyrazol-3-yl)-4-morpholinobenzamide]",,0.048,,
"Cc1cnc(-c2cc3[nH]nc(-c4ccc(F)cc4)c3s2)o1 [Example 246, 2-(3-(4-fluorophenyl)-1H-thieno[3,2-c]pyrazol-5-yl)-5-methyloxazole]",,0.5,,
"CCNC(=O)c1cc2[nH]nc(-c3ccc(N(C)C)cc3)c2s1 [Example 237, 3-(4-(dimethylamino)phenyl)-N-ethyl-1H-thieno[3,2-c]pyrazole-5-carboxamide]",,1.79,,
"CCNC(=O)c1cc2[nH]nc(-c3ccccc3)c2s1 [Example 238, N-ethyl-3-phenyl-1H-thieno[3,2-c]pyrazole-5-carboxamide]",,3.47,,
"O=C(c1cc2[nH]nc(-c3ccc(N4CCOCC4)cc3)c2s1)N1CCCC1 [Example 248, (3-(4-morpholinophenyl)-1H-thieno[3,2-c]pyrazol-5-yl)(pyrrolidin-1-yl)methanone]",,8.09,,
"COC(=O)c1cc2[nH]nc(-c3ccc(N(C)C)cc3)c2s1 [Example 234, methyl 3-(4-(dimethylamino)phenyl)-1H-thieno[3,2-c]pyrazole-5-carboxylate]",,,insoluble,
"Cc1cnc(-c2cc3[nH]nc(-c4ccc(F)cc4)c3s2)s1 [Example 247, 3-(4-fluorophenyl)-5-(5-methylthiazol-2-yl)-1H-thieno[3,2-c]pyrazole]",,> 20,,
"COC(=O)c1cc2[nH]nc(-c3ccc(OCCN4CCOCC4)cc3)c2s1 [Example 249, methyl 3-(4-(2-morpholinoethoxy)phenyl)-1H-thieno[3,2-c]pyrazole-5-carboxylate]",,0.47,,
"CC(C)(NC(=O)c1ccc2[nH]nc(NC(=O)c3ccc(F)cc3)c2c1)c1cccs1 [Example 215, 3-(4-Fluorobenzamido)-N-(2-(thiophen-2-yl)propan-2-yl)-1H-indazole-5-carboxamide]",0.021,,,0.32
"COC(=O)c1cc2[nH]nc(-c3ccc(NC(C)=O)cc3)c2s1 [Example 245, methyl 3-(4-acetamidophenyl)-1H-thieno[3,2-c]pyrazole-5-carboxylate]",,0.16,,
"CN1CCN(c2ccc(C(=O)Nc3n[nH]c4ccc(C(=O)NC5(c6cccs6)CCCCC5)cc34)cc2)CC1 [Example 147, 3-(4-(4-Methylpiperazin-1-yl)benzamido)-N-(1-(thiophen-2-yl)cyclohexyl)-1H-indazole-5-carboxamide]",0.11,,,0.34
"CC(NC(=O)c1ccc2[nH]nc(NC(=O)c3ccc(N4CCN(C)CC4)cc3)c2c1)c1ccsc1 (stereo not drawn) [Example 80, 3-(4-(4-Methylpiperazin-1-yl)benzamido)-N-(1-(thiophen-3-yl)ethyl)-1H-indazole-5-carboxamide]",0.0025,,,0.0074
"CN1CCN(c2ccc(C(=O)Nc3n[nH]c4ccc(C(=O)NC(C)(C)c5ccsc5)cc34)cc2)CC1 [Example 145, 3-(4-(4-methylpiperazin-1-yl)benzamido)-N-(2-(thiophen-3-yl)propan-2-yl)-1H-indazole-5-carboxamide]",0.012,,,0.033
"O=C(NCc1cccs1)c1ccc2[nH]nc(NC(=O)c3ccc(OCCN4CCOCC4)cc3)c2c1 [Example 201, 3-(4-(2-Morpholinoethoxy)benzamido)-N-(thiophen-2-ylmethyl)-1H-indazole-5-carboxamide]",0.003,,,0.038
"C[C@H](NC(=O)c1ccc2[nH]nc(NC(=O)c3ccc(N4CCN(C)CC4)cc3)c2c1)c1ccccc1 [Example 176, (S)-3-(4-(4-Methylpiperazin-1-yl)benzamido)-N-(1-phenylethyl)-1H-indazole-5-carboxamide]",0.058,,,0.34
"O=C(NCc1cccs1)c1ccc2[nH]nc(NC(=O)c3ccc(NCC4CCCO4)cc3)c2c1 (stereo not drawn) [Example 157, 3-(4-(((Tetrahydrofuran-2-yl)methyl)amino)benzamido)-N-(thiophen-2-ylmethyl)-1H-indazole-5-carboxamide]",0.008,,,0.05
"O=C(NCc1cccnc1)c1ccc2[nH]nc(NC(=O)c3ccc(N4CCOCC4)cc3)c2c1 [Example 56, 3-(4-Morpholinobenzamido)-N-(pyridin-3-ylmethyl)-1H-indazole-5-carboxamide 2,2,2-trifluoroacetate]",0.0033,,,0.1
"O=C(NCC1CCCC1)c1ccc2[nH]nc(NC(=O)c3ccc(N4CCOCC4)cc3)c2c1 [Example 91, N-(Cyclopentylmethyl)-3-(4-morpholinobenzamido)-1H-indazole-5-carboxamide 2,2,2-trifluoroacetate]",0.0053,,,0.093
"CCC[C@@H](NC(=O)c1ccc2[nH]nc(NC(=O)c3ccc(N4CCN(C)CC4)cc3)c2c1)c1ccccc1 [Example 194, (R)-3-(4-(4-Methylpiperazin-1-yl)benzamido)-N-(1-phenylbutyl)-1H-indazole-5-carboxamide]",0.0075,,,0.038
